# Source: article PMC12670405, “Second-Generation AURKA-Targeting PROTACs: Structural Optimization toward in Vivo Degradation in Neuroblastoma” (Journal of Medicinal Chemistry, 2025)
# What was measured:
# SP2 = test: LC-MS/MS proteome profiling; assay type: cell-based, Homo sapiens; details: SK5527 vs DMSO (24h)
# Description: (§1) Analysis of the mass spectrometry data was performed in DiaNN (version 1.9). Precursor false discovery rate was set at 1%. Spectra were searched against the Homo sapiens protein sequences in the Uniprot database (database release version of 2024_01), containing 20,597 sequences (www.uniprot.org) and the imbedded protein contaminant list. Enzyme specificity was set as C-terminal to arginine and lysine, also allowing cleavage at proline bonds with a maximum of 2 missed cleavages. Variable modifications were set to oxidation of methionine residues and acetylation of protein N-termini while fixed modification was set to carbamidomethylation of cystein residues. Matching between runs was enabled. Mainly default settings were used, except for the addition of a 400-900 m/z precursor mass range filter and MS1 and MS2 mass tolerance was set to 10 and 20 ppm respectively.
# (§2) Further data analysis of the results was performed with an in-house script in the R programming language.
# (§3) Protein expression matrices were prepared as follows: the DIA-NN main report output table was filtered at a precursor and protein library q-value cut-off of 1 % and only proteins identified by at least one proteotypic peptide were retained. After pivoting into a wide format, iBAQ intensity columns were then added to the matrix using the DIAgui’s R package get_IBAQ function. PG MaxLFQ intensities were log2 transformed and replicate samples were grouped. Proteins with less than 3 valid values in at least one group were removed and missing values were imputed from a normal distribution centered around the detection limit (package DEP) leading to a list of 7,759 quantified proteins in the experiment, used for further data analysis. To compare protein abundance […]
# (§4) 24h MK-5108 vs 24h DMSO sample groups), statistical testing for differences between two group means was performed, using the package limma. Statistical significance for differential regulation was set to a false discovery rate (FDR) of < 0.05 and |log2FC| = 2.
# RSF1 = test: LC-MS/MS proteome profiling; assay type: cell-based, Homo sapiens; details: SK5527 vs DMSO (24h)
# Description: as §1, §2, §3, §4
# ZSCAN22 = test: LC-MS/MS proteome profiling; assay type: cell-based, Homo sapiens; details: SK5527 vs DMSO
# Description: as §1, §2, §3, §4
# SRSF10 = test: LC-MS/MS proteome profiling; assay type: cell-based, Homo sapiens; details: SK5527 vs DMSO (24h)
# Description: as §1, §2, §3, §4
# SMTN = test: LC-MS/MS proteome profiling; assay type: cell-based, Homo sapiens; details: SK5527 vs DMSO (24h)
# Description: as §1, §2, §3, §4
# ARHGEF18 = test: LC-MS/MS proteome profiling; assay type: cell-based, Homo sapiens; details: SK5527 vs DMSO (24h)
# Description: as §1, §2, §3, §4
# TROAP = test: LC-MS/MS proteome profiling; assay type: cell-based, Homo sapiens; details: SK5527 vs DMSO
# Description: as §1, §2, §3, §4
# JMJD1C = test: LC-MS/MS proteome profiling; assay type: cell-based, Homo sapiens; details: SK5527 vs DMSO (24h)
# Description: as §1, §2, §3, §4
# ZNF7 = test: LC-MS/MS proteome profiling; assay type: cell-based, Homo sapiens; details: SK5527 vs DMSO (24h)
# Description: as §1, §2, §3, §4
# ZNF337 = test: LC-MS/MS proteome profiling; assay type: cell-based, Homo sapiens; details: SK5527 vs DMSO (24h)
# Description: as §1, §2, §3, §4
# HAND2 = test: LC-MS/MS proteome profiling; assay type: cell-based, Homo sapiens; details: SK5527 vs DMSO (24h)
# Description: as §1, §2, §3, §4
# SIPA1L3 = test: LC-MS/MS proteome profiling; assay type: cell-based, Homo sapiens; details: SK5527 vs DMSO (24h)
# Description: as §1, §2, §3, §4
# PLCXD1 = test: LC-MS/MS proteome profiling; assay type: cell-based, Homo sapiens; details: SK5527 vs DMSO (24h)
# Description: as §1, §2, §3, §4
# ABCA3 = test: LC-MS/MS proteome profiling; assay type: cell-based, Homo sapiens; details: SK5527 vs DMSO (24h)
# Description: as §1, §2, §3, §4
# 403 nonmutant kinases = test: KINOMEscan scanMAX kinome-wide binding scan, interactions mapped; details: for Interactions mapped: total = 403 non-mutant kinases, threshold < 35% of control
# Description: The kinome-wide binding assay was performed by Eurofins Discovery using the scanMAX screening platform. More information can be found on the Eurofins Discovery Web site.
smiles,measurement,setting,value
Cc1cc(Nc2ccc(F)c(CC3(C(=O)N4CCC(F)(CN5CCN(c6ccc(N7CCC(=O)NC7=O)cn6)CC5)CC4)CCN(Cc4cccc(Cl)c4F)CC3)n2)n[nH]1 [SK5527],logFC SP2,SP2,-2.23
same,logFC RSF1,RSF1,2.45
same,logFC ZSCAN22,ZSCAN22,-2.09
same,logFC SRSF10,SRSF10,2.01
same,logFC SMTN,SMTN,2.05
same,logFC ARHGEF18,ARHGEF18,-5.19
same,logFC TROAP,TROAP,2.33
same,logFC JMJD1C,JMJD1C,2.49
same,logFC ZNF7,ZNF7,-2.38
same,logFC ZNF337,ZNF337,2.22
same,logFC HAND2,HAND2,-3.26
same,logFC SIPA1L3,SIPA1L3,-3.26
same,logFC PLCXD1,PLCXD1,-2.06
same,logFC ABCA3,ABCA3,-4.59
same,kinases significantly engaged (in words),403 nonmutant kinases; 100 nM,only AURKA and TrKA
same,Interactions mapped,403 nonmutant kinases; 100nM,2
same,"nonmutant kinases bound in addition to AURKA, out of 403",403 nonmutant kinases; 1000 nM,9
same,Interactions mapped,403 nonmutant kinases; 1000nM,10
